From publication PMC11758220, “Identification of a Privileged Scaffold for Inhibition of Sterol Transport Proteins through the Synthesis and Ring Distortion of Diverse, Pseudo-Natural Products” (ACS Central Science, 2025)

Key:
STARD4 = target: T1, STARD4 (Homo sapiens, UniProt Q96DR4, C75S); assay: Differential scanning fluorimetry (DSF), STARD4; type: binding; conditions: for ΔTm at 10 µM / STARD4 (DSF) ΔTm: single dose, Dose = 10 µM; for Kd: apparent Kd, mean of three experiments run in technical duplicates, read-out: STARD4 Kd,app (DSF); for STARD4 (DSF) ΔTmmax: maximal thermal shift
T1 construct: STARD4(2-205; C75S); made in house; host or cells: E. coli BL21(DE3)
T1 sequence (Q96DR4 2-205 C75S): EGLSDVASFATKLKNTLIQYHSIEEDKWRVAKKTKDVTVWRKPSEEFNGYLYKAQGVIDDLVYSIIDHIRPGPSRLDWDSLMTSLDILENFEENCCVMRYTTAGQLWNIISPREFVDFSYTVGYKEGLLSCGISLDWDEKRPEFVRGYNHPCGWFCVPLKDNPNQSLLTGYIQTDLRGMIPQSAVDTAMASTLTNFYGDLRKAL
Excerpt: (§1) Protein expression constructs
(§2) Human ASTER domains of Aster-A(359-547), -B(364-552) and -C(318-504) were subcloned into a pGEX-6p-2rbs vector, thus introducing the cloning artifact ‘GPLGS’.3 The pGEX-6P-1-GST-OSBP(377- […]
(§3) a gift from James H. Hurley (University of California).4 The pHIS_2His6_Thrombin_STARD4(2-205;C75S) plasmid was a gift from Young Jun Im (Chonnam National University).5 STARD5A was a gift from Nicola Burgess-Brown (Addgene plasmid #42392; http://n2t.net/addgene:42392; […]
(§4) Protein expression and purification […]
(§5) vectors including an N-terminal PreScission-cleavable glutathione S-transferase (GST)-tag were expressed in Escherichia coli (E. coli) OverExpress C41 in Terrific Broth (TB) medium for 16 h at 18 °C after the induction with 0.1 mM isopropyl β-D-1-thiogalactopyranoside (IPTG). Cells were harvested at 3500 × g for 15 minutes and lysed by sonication in buffer containing 50 mM HEPES pH 7.5, 300 mM NaCl, 10 %v/v glycerol, 5 mM dithiothreitol (DTT), 0.1 %v/v Triton X-100 and protease inhibitor mix HP plus (Serva). The lysate was purified by affinity chromatography on a GSTrap FF column (Cytiva) using an ÄKTA Start (Cytiva) in buffer containing 50 mM HEPES pH 7.5, 300 mM NaCl, 10 %v/v glycerol, 5 mM DTT and 0.01 %v/v Triton X-100. The GST-tag was cleaved overnight on the column at 4 °C. The Aster sterol binding domains were further purified by size-exclusion chromatography (SEC) on a HiLoad 16/600 Superdex 75 pg (Cytiva) in buffer containing 20 mM HEPES pH 7.5, 300 mM NaCl, 10 %v/v […]
(§6) STARD5(6-213) harboring an N-terminal His6-Tag were expressed in E. coli BL21(DE3) in Luria-Bertani Broth (LB) medium for approximately 16 h at 18 °C after induction with 0.15 mM IPTG. Cells were harvested at 3500 × g for 15 minutes and lysed by sonication in buffer containing 50 mM HEPES pH 7.5, 150 mM NaCl, 5 %v/v glycerol, 5 mM DTT, 0.1 %v/v Triton X -100 and ethylenediaminetetraacetic acid (EDTA)-free protease inhibitor cocktail (Sigma-Aldrich). The cleared lysate was purified by affinity chromatography on a Ni-NTA Superflow Cartridge (Qiagen) using an ÄKTA Start (Cytiva) in buffer containing 50 mM HEPES pH 7.5, 150 mM NaCl, 5 %v/v glycerol, 5 mM DTT. START domains were eluted by using elution buffer containing 50 mM HEPES pH 7.5, 150 mM NaCl, 5 %v/v glycerol, 5 mM DTT and 500 mM imidazole. Proteins were further purified by SEC on a HiLoad 16/600 Superdex 75 pg (Cytiva) in buffer containing 20 mM HEPES pH 7.5, 150 mM NaCl, 5 %v/v glycerol and 2 mM DTT.
(§7) The ORP domain of human OSBP(377-807) in the pGEX-6p-1 vector with an N-terminal PreScission-cleavable GST-tag was expressed in E. coli OverExpress C41 in LB medium for 16 h at 18 °C after induction with 0.1 mM IPTG. Cells were harvested at 3500 × g for 15 minutes and lysed by sonication in buffer containing 20 mM HEPES pH 7.5, 300 mM NaCl, 10 %v/v glycerol, 5 mM DTT, 0.1 %v/v Triton X-100 and EDTA-free protease inhibitor cocktail (Sigma-Aldrich). The cleared lysate was purified by affinity chromatography on a GSTrap HF column (Cytiva) using an ÄKTA Start (Cytiva) in buffer containing 20 mM HEPES pH 7.5, 300 mM NaCl, 10 %v/v glycerol, 5 mM DTT. OSBP(377 -807) was eluted by using elution buffer containing 20 mM HEPES pH 7.5, 300 mM NaCl, 10 %v/v glycerol, 5 mM DTT and 10 mM reduced glutathione. Proteins were further purified by SEC on a HiLoad 16/600 Superdex 75 pg (Cytiva) using an ÄKTA Explorer (Cytiva) in buffer containing 20 mM HEPES pH 7.5, 150 mM NaCl, 10 %v/v glycerol and 2 mM DTT.
(§8) The ORP domains of human ORP1(534-950) in pET24b(+) and ORP2(49-480) in the pET24b(+) vector including an N-terminal His6-Tag were expressed in E. coli BL21(DE3) in TB medium for approximately 16 h at 18 °C after induction with 0.1 mM IPTG. Cells were collected at 3500 × g for 15 minutes and lysed by sonification in buffer containing 10 mM Tris-HCl pH 8, 300 mM NaCl, 5 % glycerol, 2 mM DTT, 0.1 % Triton X-100 and EDTA-free protease inhibitor cocktail (Sigma-Aldrich). The cleared […]

ORP2 = target: T2, ORP2 (Homo sapiens, UniProt Q9H1P3); assay: Fluorescence polarisation (FP) competition with NBD-cholesterol, ORP2; type: binding; conditions: for IC50: mean of three experiments run in technical duplicates; for inhibition at 10 µM / ORP2 (FP) inhibition: single dose, Dose = 10 µM
T2 construct: ORP2(49-480); host or cells: E. coli BL21(DE3)
T2 sequence (Q9H1P3 49-480): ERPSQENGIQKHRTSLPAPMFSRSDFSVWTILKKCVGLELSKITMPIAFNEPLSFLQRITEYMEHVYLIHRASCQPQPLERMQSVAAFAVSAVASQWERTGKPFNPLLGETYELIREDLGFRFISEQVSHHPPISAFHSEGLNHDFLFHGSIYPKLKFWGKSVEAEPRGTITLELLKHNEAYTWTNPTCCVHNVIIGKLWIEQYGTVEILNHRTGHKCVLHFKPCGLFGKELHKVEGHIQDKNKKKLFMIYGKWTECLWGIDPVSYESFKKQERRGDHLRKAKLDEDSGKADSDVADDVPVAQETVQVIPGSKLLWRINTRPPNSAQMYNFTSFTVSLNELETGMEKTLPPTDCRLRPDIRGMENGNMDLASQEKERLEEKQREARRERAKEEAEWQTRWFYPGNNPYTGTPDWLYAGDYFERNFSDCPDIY
Excerpt: as §1, §2, §3, §4, §5, §6, §7, §8

Compound | ΔTm at 10 µM (STARD4) | IC50 (ORP2) | inhibition at 10 µM (ORP2) | Kd (STARD4) | STARD4 (DSF) ΔTmmax (STARD4) | STARD4 (DSF) ΔTm (STARD4) | ORP2 (FP) inhibition (ORP2)
C[C@]12CC[C@@H]3C[C@H]1CC[C@@]21C(=Nc2ccc(Br)cc21)O3 (racemic) [Compound 15b] | 1.5 °C | 7.14 µM | 29% | – | – | – | –
CC12CCC3CC1CCC21C(=Nc2ccc(N4CCOCC4)cc21)O3 (racemic) [Compound 19a] | 0.851 °C | > 80 µM | 27% | > 30 µM | 1.1 °C | – | –
CC12CCC3CC1CCC21C(=Nc2ccc(Br)cc21)O3 (single isomer, unassigned; (+)) [(+)-15b] | 0.0899 °C | > 80 µM | 35% | 7.89 µM | 1.4 °C | – | –
CC12CCC3CC1CCC21C(=Nc2ccc(N4CCOCC4)cc21)O3 (single isomer, unassigned; (+)) [(+)-19a] | – | > 80 µM | – | > 50 µM | 1.1 °C | 0.4 °C | 7%
CC12CCC3CC1CCC21C(=Nc2ccc(N4CCOCC4)cc21)O3 (single isomer, unassigned; (-)) [(−)-19a] | – | > 50 µM | – | > 30 µM | 1.3 °C | 1.3 °C | 32%
C[C@@]12CC[C@H]3C[C@@H]1CC[C@]21C(=Nc2ccc(Br)cc21)O3 [(−)-15b] | 0.324 °C | 5.85 µM | 60% | 6.04 µM | 3.6 °C | – | –
CC(C)Oc1ccc(C(=O)Nc2nc3c(s2)CN(C(=O)OC(C)(C)C)CC3)cc1 [Autogramin-2, reference compound] | – | 6.83 µM | – | > 30 µM | – | 0.2 °C | 18%
Cc1c2c(nc3ccccc13)[C@@]1(C)CC[C@@H](O)C[C@H]1CC2 [Compound 2a] | -0.141 °C | – | 43.5% | – | – | – | –
C[C@]12CC[C@@H](O)C[C@H]1CCc1c2nc2ccccc2c1-c1ccccc1 [Compound 2b] | – | – | – | – | – | -0.0888 °C | 14%
Cc1c2c(nc3cc(Br)ccc13)[C@@]1(C)CC[C@@H](O)C[C@H]1CC2 [Compound 2c] | – | – | – | – | – | 0.0489 °C | 53%
C[C@]12CC[C@@H](O)C[C@H]1CCc1c2nc2ccccc2c1-c1ccc(F)cc1 [Compound 2d] | -0.177 °C | – | 14% | – | – | – | –
C[C@]12CC[C@@H](O)C[C@H]1CCc1c2nc2ccc(Cl)cc2c1-c1ccccc1 [Compound 2e] | – | – | – | – | – | -0.00387 °C | 15%
C[C@]12CC[C@@H](O)C[C@H]1CCc1c2[nH]c2ncccc12 [Compound 3] | -0.021 °C | – | 2% | – | – | – | –
C[C@]12CC[C@@H](O)C[C@H]1CCC[C@]21Nc2ccccc2-n2cccc21 [Compound 4] | 0.6 °C | – | 12% | – | – | 0.7 °C | 25%
C[C@]12CC[C@@H](O)C[C@H]1CCC[C@]21NC(=O)c2ccccc2N1 [Compound 5a] | -0.124 °C | – | 6% | – | – | -0.0769 °C | 11%
C[C@]12CC[C@@H](O)C[C@H]1CCC[C@]21NC(=O)c2ccc(F)cc2N1 [Compound 5b] | -0.0901 °C | – | 7% | – | – | 0.027 °C | 2%
COc1ccc2c(c1)C(=O)N[C@]1(CCC[C@@H]3C[C@H](O)CC[C@@]31C)N2 [Compound 5c] | -0.0676 °C | – | 24% | – | – | -0.0518 °C | 12%
C[C@]12CC[C@@H](O)C[C@H]1CCc1nc3ccccc3nc12 [Compound 7a] | 0.0574 °C | – | 55% | – | – | – | –
Cc1cc2nc3c(nc2cc1C)[C@@]1(C)CC[C@@H](O)C[C@H]1CC3 [Compound 7b] | 0.27 °C | – | 12% | – | – | – | –
C[C@]12CC[C@@H](O)C[C@H]1CCc1nc3cc(F)c(F)cc3nc12 [Compound 7c] | – | – | – | – | – | 0.0575 °C | 9%
C[C@]12CC[C@@H](O)C[C@H]1CCc1nc3cc(Cl)c(Cl)cc3nc12 [Compound 7d] | – | – | – | – | – | -0.111 °C | 12%
C[C@]12CC[C@@H](O)C[C@H]1CCc1nc3cc(Br)c(Br)cc3nc12 [Compound 7e] | – | – | – | – | – | 0.0567 °C | 27%
C[C@]12CC[C@@H](O)C[C@H]1CCc1sc(N)nc12 [Compound 8a] | -0.00456 °C | – | 11% | – | – | – | –
